Assay results published in ChEMBL document CHEMBL4507273 (2021).

Assays:
[1] = target: T1, D(2) dopamine receptor (Homo sapiens, UniProt P14416); assay: GPCRScan assay: inhibition of D2; set-up: radioligand conc. used [nm] 0.4 – 1.0, parental cells stable fibroblast
[2] = target: Histamine H4 receptor (Homo sapiens, UniProt Q9H3N8); assay: GPCRScan assay: inhibition of H4; set-up: radioligand conc. used [nm] 1.0 – 5.0, parental cells HEK T
[3] = target: T1, D(2) dopamine receptor; details: Compound concentration 10.0 uM
[4] = target: Serine/threonine-protein kinase Chk2 (Homo sapiens) (UniProt O96017); assay: CHK2(h) Eurofins Kinase panel; details: Compound concentration 1.0 uM
[5] = target: ATR/ATRIP (Homo sapiens) (UniProt Q13535+Q8WXE1); assay: ATR/ATRIP(h) Eurofins Kinase panel; type: protein-complex assay; details: Compound concentration 1.0 uM
[6] = target: Leukocyte tyrosine kinase receptor (Homo sapiens) (UniProt P29376); assay: LTK(h) Eurofins Kinase panel; details: Compound concentration 1.0 uM
[7] = target: PAS domain-containing serine/threonine-protein kinase (Homo sapiens) (UniProt Q96RG2); assay: PASK(h) Eurofins Kinase panel; details: Compound concentration 1.0 uM
Sequence of PAS domain-containing serine/threonine-protein kinase (Homo sapiens) (Q96RG2 whole entry, the tested form may be a part): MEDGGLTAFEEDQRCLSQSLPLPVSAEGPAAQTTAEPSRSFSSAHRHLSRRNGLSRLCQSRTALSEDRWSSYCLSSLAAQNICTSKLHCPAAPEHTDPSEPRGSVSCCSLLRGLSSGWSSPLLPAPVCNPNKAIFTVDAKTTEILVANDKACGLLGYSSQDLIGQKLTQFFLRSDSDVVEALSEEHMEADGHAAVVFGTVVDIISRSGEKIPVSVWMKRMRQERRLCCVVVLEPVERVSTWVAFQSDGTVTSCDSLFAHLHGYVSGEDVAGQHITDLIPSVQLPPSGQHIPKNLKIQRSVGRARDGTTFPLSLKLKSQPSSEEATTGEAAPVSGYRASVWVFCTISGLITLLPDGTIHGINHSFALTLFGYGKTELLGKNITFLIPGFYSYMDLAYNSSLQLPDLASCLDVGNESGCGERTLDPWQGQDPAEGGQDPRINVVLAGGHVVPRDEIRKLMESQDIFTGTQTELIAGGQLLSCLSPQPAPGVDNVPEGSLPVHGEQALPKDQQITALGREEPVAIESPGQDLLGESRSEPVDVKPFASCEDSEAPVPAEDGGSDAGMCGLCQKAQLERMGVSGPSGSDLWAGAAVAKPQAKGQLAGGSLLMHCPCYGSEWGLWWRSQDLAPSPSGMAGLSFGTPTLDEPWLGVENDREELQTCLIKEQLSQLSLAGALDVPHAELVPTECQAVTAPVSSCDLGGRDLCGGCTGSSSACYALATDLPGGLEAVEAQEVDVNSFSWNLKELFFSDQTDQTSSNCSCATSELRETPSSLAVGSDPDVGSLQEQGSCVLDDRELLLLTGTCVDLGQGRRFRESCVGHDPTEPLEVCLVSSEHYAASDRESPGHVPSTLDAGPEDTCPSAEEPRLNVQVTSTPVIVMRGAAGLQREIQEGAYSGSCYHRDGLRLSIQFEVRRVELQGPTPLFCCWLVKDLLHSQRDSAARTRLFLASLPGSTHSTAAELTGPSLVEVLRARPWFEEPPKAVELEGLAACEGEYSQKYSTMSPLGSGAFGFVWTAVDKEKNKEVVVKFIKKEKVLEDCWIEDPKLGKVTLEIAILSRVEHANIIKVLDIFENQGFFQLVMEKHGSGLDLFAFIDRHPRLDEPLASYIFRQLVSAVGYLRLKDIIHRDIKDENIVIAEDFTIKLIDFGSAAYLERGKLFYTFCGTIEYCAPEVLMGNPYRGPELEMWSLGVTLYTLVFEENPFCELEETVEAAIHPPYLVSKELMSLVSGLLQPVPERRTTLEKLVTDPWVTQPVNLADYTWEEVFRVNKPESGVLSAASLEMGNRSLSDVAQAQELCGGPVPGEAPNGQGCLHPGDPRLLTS

T1 sequence (P14416 whole entry): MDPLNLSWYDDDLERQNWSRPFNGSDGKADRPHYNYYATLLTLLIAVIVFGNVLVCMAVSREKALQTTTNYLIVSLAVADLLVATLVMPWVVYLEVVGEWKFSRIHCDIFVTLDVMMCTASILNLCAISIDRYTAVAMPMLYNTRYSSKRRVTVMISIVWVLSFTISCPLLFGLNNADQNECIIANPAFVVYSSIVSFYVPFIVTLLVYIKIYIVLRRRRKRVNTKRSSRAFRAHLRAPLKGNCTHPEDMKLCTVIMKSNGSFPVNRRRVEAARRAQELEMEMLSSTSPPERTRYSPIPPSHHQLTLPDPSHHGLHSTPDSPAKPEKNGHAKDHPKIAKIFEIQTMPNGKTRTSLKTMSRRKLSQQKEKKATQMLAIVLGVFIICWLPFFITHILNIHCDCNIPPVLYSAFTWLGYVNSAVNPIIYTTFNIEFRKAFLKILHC
Sequence of Serine/threonine-protein kinase Chk2 (Homo sapiens) (O96017 whole entry): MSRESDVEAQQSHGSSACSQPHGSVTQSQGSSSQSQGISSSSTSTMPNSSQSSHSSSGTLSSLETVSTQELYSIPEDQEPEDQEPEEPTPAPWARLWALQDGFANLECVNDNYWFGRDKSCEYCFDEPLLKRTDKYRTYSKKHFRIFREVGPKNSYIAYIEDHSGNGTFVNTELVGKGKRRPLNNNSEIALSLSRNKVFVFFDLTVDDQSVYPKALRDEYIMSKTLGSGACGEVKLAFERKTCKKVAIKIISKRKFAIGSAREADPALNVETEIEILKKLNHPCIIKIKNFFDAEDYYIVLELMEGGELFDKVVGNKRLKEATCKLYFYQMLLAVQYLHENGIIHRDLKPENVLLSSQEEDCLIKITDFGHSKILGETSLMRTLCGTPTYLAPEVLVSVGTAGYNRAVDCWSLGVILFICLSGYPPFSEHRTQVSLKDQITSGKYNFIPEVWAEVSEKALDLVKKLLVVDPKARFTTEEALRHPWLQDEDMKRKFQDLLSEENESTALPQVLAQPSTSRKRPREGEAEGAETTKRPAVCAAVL
Sequence of Histamine H4 receptor (Q9H3N8 whole entry): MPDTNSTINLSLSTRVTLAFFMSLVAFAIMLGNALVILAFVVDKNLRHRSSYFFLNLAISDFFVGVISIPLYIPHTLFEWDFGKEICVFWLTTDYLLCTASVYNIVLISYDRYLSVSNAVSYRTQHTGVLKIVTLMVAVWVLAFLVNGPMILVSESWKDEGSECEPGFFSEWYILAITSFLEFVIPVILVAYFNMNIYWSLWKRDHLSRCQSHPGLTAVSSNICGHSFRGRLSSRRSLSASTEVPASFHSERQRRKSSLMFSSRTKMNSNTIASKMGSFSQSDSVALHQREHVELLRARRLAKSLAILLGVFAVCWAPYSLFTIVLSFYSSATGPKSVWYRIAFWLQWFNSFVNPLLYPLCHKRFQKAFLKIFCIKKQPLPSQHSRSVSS
Sequence of Leukocyte tyrosine kinase receptor (Homo sapiens) (P29376 whole entry, the tested form may be a part): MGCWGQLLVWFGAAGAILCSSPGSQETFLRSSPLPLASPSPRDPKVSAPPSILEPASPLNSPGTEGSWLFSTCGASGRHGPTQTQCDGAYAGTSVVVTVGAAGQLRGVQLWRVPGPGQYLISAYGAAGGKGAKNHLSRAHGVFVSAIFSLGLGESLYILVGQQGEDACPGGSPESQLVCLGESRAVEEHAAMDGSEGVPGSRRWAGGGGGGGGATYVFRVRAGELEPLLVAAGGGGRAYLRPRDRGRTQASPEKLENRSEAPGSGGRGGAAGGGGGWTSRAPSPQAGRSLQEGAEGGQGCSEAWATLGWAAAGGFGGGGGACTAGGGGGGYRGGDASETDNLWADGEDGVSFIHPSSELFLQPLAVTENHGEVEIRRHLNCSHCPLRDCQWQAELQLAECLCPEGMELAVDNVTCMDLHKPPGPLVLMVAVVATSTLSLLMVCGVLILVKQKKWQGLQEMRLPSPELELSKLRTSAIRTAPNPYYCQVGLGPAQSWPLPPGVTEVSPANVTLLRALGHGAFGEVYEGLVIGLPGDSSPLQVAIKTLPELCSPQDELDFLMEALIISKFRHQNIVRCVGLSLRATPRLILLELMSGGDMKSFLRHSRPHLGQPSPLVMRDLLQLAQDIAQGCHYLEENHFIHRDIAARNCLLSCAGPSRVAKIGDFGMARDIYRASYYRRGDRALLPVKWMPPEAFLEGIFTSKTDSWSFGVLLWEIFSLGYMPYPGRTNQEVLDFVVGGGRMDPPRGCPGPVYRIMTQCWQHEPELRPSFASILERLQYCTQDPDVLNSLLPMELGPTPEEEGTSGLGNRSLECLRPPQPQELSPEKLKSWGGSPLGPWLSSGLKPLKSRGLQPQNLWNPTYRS

Row | Compound | Ki ([1]; read-out: Ki) [µM] | Ki ([1]; read-out: pKi (converted)) [µM] | Ki [2] [µM] | inhibition [3] [%] | % residual kinase activity [4] [%] | % residual kinase activity [5] [%] | % residual kinase activity [6] [%] | % residual kinase activity [7] [%]
1 | CNCc1ccccc1-c1csc([C@H](C)Nc2nc(C)nc3cc(OC)c(OC)cc23)c1 [BAY-294] | 2.33 | 2 | 1.89 | – | – | – | – | –
2 | CNCc1ccccc1-c1csc([C@@H](C)Nc2nc(C)nc3cc(OC)c(OC)cc23)c1 [BAY-293] | – | – | – | 67 | 80 | 88 | 75 | 84
